# Test results from patent US10231939B2, “Hydroxytyrosol and oleuropein compositions for induction of DNA damage, cell death and LSD1 inhibition” (priority 2012, dated 2019).
# Values joined by “and” are separate entries in the source; they are usually repeats but may differ in a detail not shown here. Equal entries are not always repeated.
# How the values were obtained:
# [1] = biological target: LSD1 (Homo sapiens, UniProt O60341); assay: LSD1 Demethylase Profiling (HRP/Amplex Red); assay type: biochemical; settings: for LSD1 inhibition (in words): 10-dose, 3-fold serial dilution starting at 100 μM, 10 μM Histone H3 (1-21) K4me2 peptide
# Description: Formulation 2 (4× diluted) was tested against positive control tranylcypromine for LSD1 inhibition activity. […] The production of FAD-dependent H2O2 as a result of demethylase activity of LSD1 is measured by coupling with HRP and Amplex Red and fluorescence was measured using the EnVision plate reader at Ex/Em=535/590 nm. 10 μM Histone H3 (1-21) K4me2 peptide was used as the standard substrate. Data was represented at the percentage of LSD1 enzymatic activity inhibition relative to DMSO controls and a curve fit for the control compound.
# Hydroxytyrosol was tested against positive control tranylcypromine for LSD1 inhibition activity. […] The production of FAD-dependent H2O2 as a result of demethylase activity of LSD1 is measured by coupling with HRP and Amplex Red and fluorescence was measured using the EnVision plate reader at Ex/Em=535/590 nm. 10 μM Histone H3 (1-21) K4me2 peptide was used as the standard substrate. Data was represented at the percentage of LSD1 enzymatic activity inhibition relative to DMSO controls and a curve fit for the control compound.
# [2] = system: K562 cells; assay: mRNA-Sequencing, K562 cells; assay type: cell-based, human; settings: 24 hours
# Description: Cells were seeded at densities of 1×10^6/mL in culture flasks (Nalge Nunc, New York, USA) and treated with hydroxytyrosol (0, 20, 100 μM), for 24 hours at 37° C., 5% (v/v) CO2. mRNA sequencing was performed by TRIZOL extraction and library preparation using Illumina kits according to manufacturer's protocols. Next generation sequencing (NGS) was performed at a depth of approximately 20 million mapped reads per sample to determine the effect of hydroxytyrosol on genome-wide gene expression, in human erythroleukemic K562 cells and human keratinocytes (24 hr treatment, 20 and 100 μM). Reads generated by the Illumina base calling software V1.6 were aligned with Burrows Wheeler Aligner to the human transcriptome database curated by RefSeq (Hg18 build). Raw counts were normalized to adjust for slightly differing data volume across lanes giving the widely used score reads per transcript per million reads. These scores were used to determine relative fold changes and the conventionally used ±1.5 fold-change, which is discernible with qRT-PCR, was defined a significant change in expression. The online program MetaCore (GeneGo Inc. St. Joseph, MI, USA) was used for pathway analysis.
# Cells were seeded at densities of 1×10^6/mL in culture flasks (Nalge Nunc, New York, USA) and K562 cells were treated with or without 100 μM hydroxytyrosol for 24 hours at 37° C., 5% (v/v) CO2. mRNA sequencing was performed by TRIZOL extraction and library preparation using Illumina kits according to manufacturer's protocols. Next generation sequencing (NGS) was performed at a depth of approximately 20 million mapped reads per sample. Reads generated by the Illumina base calling software V1.6 were aligned with Burrows Wheeler Aligner to the human transcriptome database curated by RefSeq (Hg18 build). Raw counts were normalized to adjust for slightly differing data volume across lanes giving the widely used score reads per transcript per million reads. These scores were used to determine relative fold changes and the conventionally used ±1.5 fold-change, which is discernible with qRT-PCR, was defined a significant change in expression. The online program MetaCore (GeneGo Inc. St. Joseph, MI, USA) was used for pathway analysis. The Warburg gene-set shown in Table 10 was used to investigate changes in Warburg-related genes in human erythroleukemic compared to normal peripheral blood mononuclear cells and changes in expression of Warburg-related genes following incubation of K562 cells with hydroxytyrosol.
# [3] = 100 μM HT, negative = down-regulated
# [4] = 100 μM HT, negative = down-regulated, listed as hydroxytyrosol
# [5] = 100 μM hydroxytyrosol, unsigned
smiles,measurement,setting,value
"OCCc1ccc(O)c(O)c1 [HT, 4-(2-hydroxyethyl)-1,2-benzenediol]",LSD1 inhibition (in words),[1]; listed as Hydroxytyrosol,Hydroxytyrosol is a potent
same,LSD1 inhibition (in words),[1]; listed as hydroxytyrosol,potent inhibitor of LSD1
same,LSD1 inhibition compared with tranylcypromine,[1]; positive control tranylcypromine,more effective LSD1 inhibitor against tranylcypromine
same,HDAC9 expression Fold Change (DOWN),[2]; 20 μM HT,1.82 fold and 2.00 fold
same,KDM4C expression Fold Change (DOWN),[2]; 20 μM HT,1.61 fold
same,NCOA2 expression Fold Change (DOWN),[2]; 20 μM HT,1.63 fold
same,PHF8 expression Fold Change (DOWN),[2]; 20 μM HT,1.62 fold
same,PRDM1 expression Fold Change (DOWN),[2]; 20 μM HT,1.68 fold
same,PRDM6 expression Fold Change (UP),[2]; 20 μM HT,3.50 fold
same,PRDM12 expression Fold Change (DOWN),[2]; 20 μM HT,1.50 fold
same,PRMT8 expression Fold Change (DOWN),[2]; 20 μM HT,2.13 fold
same,EHMT1 expression Fold Change (DOWN),[2]; 100 μM HT,1.63 fold
same,GTF3C4 expression Fold Change (DOWN),[2]; 100 μM HT,1.55 fold
same,HDAC7 expression Fold Change (DOWN),[2]; 100 μM HT,1.76 fold and 1.78 fold
same,HDAC9 expression Fold Change (UP),[2]; 100 μM HT,2.05 fold and 1.50 fold
same,KDM4A expression Fold Change (UP),[2]; 100 μM HT,1.71 fold
same,KDM4C expression Fold Change (DOWN),[2]; 100 μM HT,1.66 fold
same,KDM6B expression Fold Change (UP),[2]; 100 μM HT,1.70 fold
same,MLL3 expression Fold Change (DOWN),[2]; 100 μM HT,1.68 fold
same,NCOA2 expression Fold Change (DOWN),[2]; 100 μM HT,1.50 fold
same,NPM2 expression Fold Change (DOWN),[2]; 100 μM HT,3.33 fold
same,PPARGC1A expression Fold Change (UP),[2]; 100 μM HT,2.00 fold
same,PRDM6 expression Fold Change (DOWN),[2]; 100 μM HT,2.00 fold
same,PRDM9 expression Fold Change (UP),[2]; 100 μM HT,1.85 fold
same,PRDM10 expression Fold Change (DOWN),[2]; 100 μM HT,1.92 fold
same,PRDM12 expression Fold Change (UP),[2]; 100 μM HT,2.00 fold
same,PRDM15 expression Fold Change (DOWN),[2]; 100 μM HT,1.78 fold
same,PRMT8 expression Fold Change (DOWN),[2]; 100 μM HT,1.89 fold
same,RPS6KA5 expression Fold Change (UP),[2]; 100 μM HT,1.56 fold
same,SETD1A expression Fold Change (DOWN),[2]; 100 μM HT,1.56 fold
same,SETD7 expression Fold Change (UP),[2]; 100 μM HT,3.41 fold
same,SMYD3 expression Fold Change (UP),[2]; 100 μM HT,1.60 fold and 1.57 fold
same,"ACLY expression Fold Change, K562 + 100 μM HT",[2]; [3],−1.60 fold
same,"AKT3 expression Fold Change, K562 + 100 μM HT",[2]; [3],2.04 fold
same,"BBC3 expression Fold Change, K562 + 100 μM HT",[2]; [3],2.66 fold
same,"C12orf5 expression Fold Change, K562 + 100 μM HT",[2]; [3],3.57 fold
same,"CASP4 expression Fold Change, K562 + 100 μM HT",[2]; [3],1.87 fold
same,"CASP7 expression Fold Change, K562 + 100 μM HT",[2]; [3],2.27 fold
same,"CASP8 expression Fold Change, K562 + 100 μM HT",[2]; [3],1.62 fold
same,"ME1 expression Fold Change, K562 + 100 μM HT",[2]; [3],2.22 fold
same,"PFKFB2 expression Fold Change, K562 + 100 μM HT",[2]; [3],−1.53 fold
same,"PFKFB4 expression Fold Change, K562 + 100 μM HT",[2]; [3],−1.79 fold
same,"SLC1A4 expression Fold Change, K562 + 100 μM HT",[2]; [3],4.28 fold
same,"SREBF1 expression Fold Change, K562 + 100 μM HT",[2]; [3],−1.69 fold
same,"TFR2 expression Fold Change, K562 + 100 μM HT",[2]; [3],−1.90 fold
same,"TP53 expression Fold Change, K562 + 100 μM HT",[2]; [3],2.30 fold
same,"VEGFA expression Fold Change, K562 + 100 μM HT",[2]; [3],2.65 fold
same,"BBC3 expression Fold Change, K562 + 100 μM HT",[2]; [4],2.29 fold
same,"CASP7 expression Fold Change, K562 + 100 μM HT",[2]; [4],2.01 fold
same,"TP53 expression Fold Change, K562 + 100 μM HT",[2]; [4],1.91 fold
same,differentially expressed Warburg-related genes reversing expression towards that observed in PBMC cells,[2]; 100 μM hydroxytyrosol,87%
same,"ACLY down-regulated, fold change",[2]; [5],1.59 fold
same,"PFKB2 down-regulated, fold change",[2]; [5],1.53 fold
same,"PFKFB4 down-regulated, fold change",[2]; [5],1.79 fold
same,transferrin receptor 2 (TRF2) down-regulated,[2]; [5],1.9 fold
same,differential expression of the Warburg-related genes regulated in K562 vs PBMC,"[2]; 100 μM hydroxytyrosol, share of the 51 genes",30%
